Test results as given in paper PMC4229098, “Alzheimer's Therapeutics Targeting Amyloid Beta 1–42 Oligomers I: Abeta 42 Oligomer Binding to Specific Neuronal Receptors Is Displaced by Drug Candidates That Improve Cognitive Deficits” (PLoS ONE, 2014).
“And” between values parts separate entries of the source, which are not always exact repeats. Equal entries are not always repeated. Where two headings read alike, the source gives them in different places.

Experiments:
[1] = test system: mature primary hippocampal and cortical cultures; assay: Membrane trafficking assay (MTT formazan exocytosis); assay type: cell-based, rat; details: for EC50: preparation dosed alone, read-out: EC50 of Abeta preparation;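 as to all read-outs here: mixed neuron and glia cultures from E18 Sprague-Dawley rat embryos, grown 3 weeks in 384-well plates, labeled vesicles quantified by imaging or spectrophotometry as percent of vehicle-treated wells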
Method: Vesicular trafficking was measured using an adaptation of a method by Liu and Schubert [51]. […] Tetrazolium salts (3-(4,5-dimethylthiazol-2yl)-2,5diphenyl tetrazolium bromide, Roche Molecular Biochemicals) were added to a final concentration of 0.75 mM and incubated at 37°C for 60–90 min. Vesicular formazan remaining in cells was quantified by absorbance spectrometry (590 nm with 690 nm subtracted) following extraction with 1.6% Tween-20. All compounds were tested in quadruplicate wells for each concentration in at least 8 replicate experiments with data from all experiments pooled for analysis with means ± S.E.M.
The amount of labeled vesicles in treated cells is quantified by automated image processing or by spectrophotometry following extraction from cells and is calculated as a percentage of vehicle-treated values. Control wells consist of Abeta and vehicle treatment without test compounds. […] In the prevention configuration of this assay, compounds are added to neuronal cultures first, followed by oligomers. Compounds are also tested in the treatment configuration of this assay in which oligomers are added to the cultures first, followed by compound addition.

[2] = test system: neuronal synaptic puncta in hippocampal/cortical cultures; assay: Abeta binding assay, neurons (immunofluorescence of neurite puncta); design: species or system rat
Method: Alternatively, displacement of prebound oligomers was evaluated by adding oligomers 60 min prior to the addition of compounds, followed by additional 30 minutes incubation. […] Images were acquired on a Cellomics VTi automated microscope with a 20X, 0.75 NA objective and analyzed using ThermoFisher/Cellomics Neuronal Profiling bioapplication set to measure punctate labeling of Abeta and synaptophysin-1 along MAP-2 labeled neurites. […]

glia = assay: Abeta binding assay, glia cell bodies; design: species or system rat
Method: Measurements of Abeta binding to glia were made with a separate algorithm (ThermoFisher/Cellomics Target Activation bioapplication) which identifies cells lacking MAP2 labeling. Glial cells were analyzed after separating them based on their nuclear morphology as determined by the characteristics of their DAPI labeling, as described in Fig. S1. […]
The morphology of MAP-2 negative glial nuclei labeled with DAPI was analyzed via automated image processing. […]

[3] = test system: synaptophysin-immunopositive puncta along MAP2-labeled neurites; assay: Synapse counting assay; assay type: cell-based, rat; details: synthetic Abeta oligomers vs vehicle, 24 hrs
Method: Sprague-Dawley rats, 18 days pregnant, were euthanized by CO2 asphyxiation followed by cervical dislocation, and embryos were removed. Hippocampus and cortical tissue from the embryo brains were digested in 2.5% Trypsin (Life Technologies) to dissociate cells. Isolated cells were plated at a density of 4.6×10^4 cells per cm^2 in 384-well poly-D Lysine coated plates (Greiner) in Neurobasal Media (Life Technologies) supplemented with B27 (Life Technologies), Glutamax (Life Technologies) and antibiotics (penicillin, 50 units/ml and streptomycin 50 µg/ml, Life Technologies). Cultures were maintained at 37°C in 5% CO2 with weekly media change for 3 weeks prior to experimentation. These mixed cultures of hippocampal plus cortical neurons and glia were used for all of the in vitro experiments described.
Cultures were treated with compounds for 60 minutes prior to addition of 6 µM (maximum from trafficking dose-response curve) of synthetic Abeta 1–42 oligomers and incubated for 24 hrs. Cultures were fixed and immunofluorescently labeled and imaged as for the Abeta binding assay. The ThermoFisher/Cellomics Neuronal Profiling bioapplication was used to count synaptophysin-immunopositive puncta along MAP2-labeled neurites. The number of puncta per unit length of neurites was used to determine effects of treatments. To attain statistical power of 80% and a p value of less than 0.05 (determined using G*Power software), twenty replicate wells were treated per experiment plate and compared to control wells on the same plate and experiments were repeated four times.

[4] = test system: C57/BL6 mice injected with Abeta oligomers; assay: Contextual fear conditioning after intrahippocampal Abeta oligomer injection; assay type: in vivo; details: injected into dorsal hippocampi 24 hours prior to testing
Source text: All procedures were approved by the Institutional Animal Care and Use and Committee at Columbia University and Stanford University and were in compliance with the Office of Laboratory Animal Welfare and the Guide for the Care and Use of Laboratory Animals, Eighth Edition. Behavioral testing of wild-type, 3–4 month old, male, C57/BL6 mice, injected bilaterally into their hippocampus with Abeta oligomers and testing in the fear conditioning task was done according to published methods. Animals were anesthetized with […] Avertin prior to implantation of cannulas into the hippocampus. Testing of transgenic hAPP Swedish/London mice in the Morris water maze or fear conditioning tasks was done according to published methods, [38]. To measure brain concentration of drugs, brains were homogenized in 1 ml PBS per gram of brain tissue using a handheld homogenizer. Brain homogenate was then extracted with three volumes of ice cold methanol on ice for 15 minutes and centrifuged for 15 min. The supernates were analyzed by LC/MS/MS. Samples were compared to a calibration curve prepared in a similar manner by spiking blank control homogenate with standards prepared in DMSO and then extracted as above. At the end of all behavioral testing, animals were euthanized with CO2 followed by cervical dislocation.

[5] = test system: hippocampal/cortical cultures; assay: Internalization of Abeta oligomers (immunolabeling with/without detergent); assay type: cell-based, rat; details: for bound Abeta at the surface: 1 µM
Method: Supplementary file pone.0111898.s002.tif: Figure S2 Internalization of Abeta oligomers. After treatment with Abeta oligomers (1 µM) for 1 hr (A, B) or 2 hr (C, D), cultures were fixed and immunolabeled for Abeta either in the presence of 0.05% Triton X-100 to permeabilize cells to immunoglobulins and measure all Abeta present (A, C) or in the absence of this detergent (B, D) to detect only Abeta bound at the cell surface. […] (TIF) Click here for additional data file.

[6] = listed as synthetic Abeta oligomers

## synthetic oligomers (high concentration): synthetic human Abeta 1–42 oligomerized at 100 µM, 4°C, 24 hr; contains monomer [reference compound]
[1]; Abeta preparation dosed alone
  Treatment duration for maximum response: 24 h
[1]; [6]
  EC50: 0.462 ± 0.056 µM
[1]
  EC50: 0.46 µM
[2]; 440 nM total Abeta, 60 minutes
  bound puncta colocalizing with synaptophysin presynaptic terminals: 37%±3%
[2]; 60 min treatment, read-out: Kd Site 1 (high affinity), neurons synaptic puncta
  Kd: 0.518 µM
glia; non-saturable site, read-out: Kd Site 2, glia cell bodies with condensed/asymmetric nuclear morphology
  Kd: > 1000 µM
glia; read-out: Kd Site 1 (high affinity), glia cell bodies with condensed/asymmetric nuclear morphology
  Kd: 0.289 µM
[3]; listed as Oligomers
  loss of synaptophysin-immunoreactive puncta: 18%±2
[3]; [6]
  loss of synaptophysin-immunoreactive puncta: 18%
[4]
  effect of Abeta oligomers on contextual fear memory: cause a deficit in contextual fear conditioning-dependent associative memory
[5]; 1 hr exposure
  bound Abeta at the surface: 96%±8%
[5]; 2 hr exposure, listed as Abeta oligomers
  bound Abeta internalized: 27%±8% and 27±8%
[5]; 2 hrs exposure
  bound Abeta at the surface: 73%±3%
